29 compounds from ChEMBL document CHEMBL4411316, “Design, synthesis and identification of novel coumaperine derivatives for inhibition of human 5-LOX: Antioxidant, pseudoperoxidase and docking studies” (Bioorg Med Chem, 2019) can be followed below.

Assay [1] concerns the target T1, Polyunsaturated fatty acid 5-lipoxygenase (Homo sapiens) (UniProt P09917).
T1 sequence (whole entry): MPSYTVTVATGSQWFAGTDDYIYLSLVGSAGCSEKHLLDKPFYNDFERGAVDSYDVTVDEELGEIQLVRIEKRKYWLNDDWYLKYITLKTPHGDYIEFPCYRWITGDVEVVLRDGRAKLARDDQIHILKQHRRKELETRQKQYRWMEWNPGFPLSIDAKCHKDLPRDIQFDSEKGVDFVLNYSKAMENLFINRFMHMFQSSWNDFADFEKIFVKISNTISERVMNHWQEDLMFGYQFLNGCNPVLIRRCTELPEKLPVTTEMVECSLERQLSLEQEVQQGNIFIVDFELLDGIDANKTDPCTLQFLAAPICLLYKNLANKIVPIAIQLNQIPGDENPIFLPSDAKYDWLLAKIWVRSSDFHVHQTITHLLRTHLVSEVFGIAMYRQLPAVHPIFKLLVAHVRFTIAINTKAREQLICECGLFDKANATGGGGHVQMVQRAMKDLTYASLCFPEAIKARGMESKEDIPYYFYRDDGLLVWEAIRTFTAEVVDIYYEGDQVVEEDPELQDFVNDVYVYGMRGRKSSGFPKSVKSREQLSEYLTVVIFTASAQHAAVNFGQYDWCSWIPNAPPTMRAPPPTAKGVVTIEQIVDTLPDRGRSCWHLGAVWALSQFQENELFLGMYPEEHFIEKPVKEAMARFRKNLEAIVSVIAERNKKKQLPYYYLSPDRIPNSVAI
Kind of assay: Inhibition of recombinant human 5-LOX expressed in Escherichia coli at 20 uM using arachidonic acid as substrate by UV-vis spectrophotometric method relative to control.

Assay [2] addresses T1, Polyunsaturated fatty acid 5-lipoxygenase (Homo sapiens). Briefly: Inhibition of recombinant human 5-LOX pseudoperoxidase activity expressed in Escherichia coli BL21 assessed as compound redox activity by measuring reduction in absorption at 10 uM using 13(S)-HpODE as substrate by UV-vis spectrophotometric method relative to control. Also on record: scale not given: the % may be the effect or the level left.

A short description of assay [3]: Antioxidant activity assessed as DPPH radical scavenging activity at 20 uM incubated for 30 mins under dark condition relative to control. The class given is functional.
Assay [4] has as its target T2, Polyunsaturated fatty acid 5-lipoxygenase (Homo sapiens, UniProt P09917).
T2 sequence (P09917 whole entry): T1 sequence (whole entry)
Briefly: Inhibition of recombinant human 5-LOX expressed in Escherichia coli using arachidonic acid as substrate by UV-vis spectrophotometric method.

Assay [5] concerns the target T2, Polyunsaturated fatty acid 5-lipoxygenase. Briefly: Inhibition of human 5-LOX using arachidonic acid as substrate measured after 10 mins by ELISA. On the technique in general: ELISA stands for enzyme-linked immunosorbent assay.

pIC50: −log10 of the molar value. Calls of active or inactive are those of the source. The rule behind the calls is not given here.

As usually defined, the inhibition is the share of the control response that was lost under treatment. As for `CN(C)c1ccc(/C=C/C=C/C=C/C(=O)N2CCCCC2)cc1`, the inhibition in assay [1] was found to be 27.4%.

For the compound `COc1cc(OC)c(/C=C/C=C/C(=O)N2CCCCC2)c(OC)c1`, the result in assay [2] was inactive. The inhibition in assay [1] was 77.1%. Moreover, the Activity in assay [3] was found to be 3.6%.

In the case of `O=C(/C=C/C=C/c1ccc(Cl)cc1)N1CCCCC1`, in assay [1], the inhibition was found to be 14.5%.

By pIC50 is commonly meant −log10 of the IC50, conventionally taken in molar units. For the compound `O=C(/C=C/C=C/c1ccc(O)c(O)c1)N1CCCCC1`, in assay [4], the pIC50 was 5.68. The figures for the Activity in assay [2] and in assay [3] were 57.4% and 76.8%, respectively. Besides, the inhibition in assay [1] stood at 82.8%.

Take `O=C(/C=C/C=C/c1ccccc1)N1CCCCC1`: the inhibition in assay [1] was determined as 36.3%.

Consider `O=C(/C=C/C=C/c1ccc2c(c1)OCO2)N1CCCCC1`, for which the inhibition in assay [1] is 47.5%.

In the case of `CN(C)c1ccc(/C=C/C=C/C(=O)N2CCCCC2)cc1`, the inhibition in assay [1] is 13.4%.

`O=C(/C=C/c1ccc2c(c1)OCO2)N1CCCCC1`: in assay [1], the inhibition stood at 39.9%.

Regarding `COc1ccc(/C=C/C=C/C(=O)N2CCCCC2)c(OC)c1OC`, in assay [1], the inhibition turned out to be 36%.

For `COc1cc(/C=C/C=C/C(=O)N2CCCCC2)cc(OC)c1O`, the inhibition in assay [1] was 32.7%.

With `O=C(/C=C/C=C/C=C/c1ccc(O)c(O)c1)N1CCCCC1`, the inhibition in assay [1] is 30.3%.

On to `O=C(/C=C/c1ccc(O)c(O)c1)N1CCCCC1`, for which the inhibition in assay [1] turned out to be 55.2%.

Take `COc1cc(/C=C/C=C/C(=O)N2CCCCC2)ccc1O`: the inhibition in assay [1] turned out to be 55.5%.

For the compound `CC(=O)Oc1ccc(/C=C/C=C/C(=O)N2CCCCC2)cc1`, the inhibition in assay [1] came out at 18.3%.

Regarding `COc1ccc(/C=C/C=C/C(=O)N2CCCCC2)cc1OC`, the inhibition in assay [1] is 51.9%.

Turning to `O=C1O[C@H]([C@@H](O)CO)C(O)=C1O`, the Activity in assay [3] was determined as 80.1%.

For the compound `O=C(/C=C/C=C/c1cc(O)c(O)c(O)c1)N1CCCCC1`, in assay [4], the pIC50 was 5.64. Further, the results for the Activity in assay [2] and in assay [3] were 50.8% and 71.3%, respectively. Also, in assay [1], the inhibition came to 82.5%.

As to `COc1ccc(/C=C/C=C/C=C/C(=O)N2CCCCC2)cc1`, the inhibition in assay [1] came out at 1.08%.

Take `COc1ccc(/C=C/C=C/C(=O)N2CCCCC2)cc1`: the inhibition in assay [1] came to 42.6%.

On to `O=C(/C=C/C=C/c1ccc(OC2CCCC2)cc1)N1CCCCC1`, for which, in assay [1], the inhibition was 16.1%.

As for `Oc1cc(O)cc(/C=C/c2ccc(O)cc2O)c1` [OXYRESVERATROL], the pIC50 in assay [5] is 4.73.

Take `COc1cc(/C=C/C=C/C(=O)N2CCCCC2)cc(OC)c1OC`: in assay [1], the inhibition turned out to be 66.7%.

In turn, `COc1cc(/C=C/c2ccc(O)cc2)cc(OC)c1` [PTEROSTILBENE] gave a pIC50 in assay [5] of 5.03.

Consider `O=C(/C=C/C=C/C=C/c1ccc2c(c1)OCO2)N1CCCCC1`, for which, in assay [2], the result was inactive. In assay [1], the inhibition was 76%. The Activity in assay [3] is 0.9%.

Consider `O=C(/C=C/C=C/c1ccc(F)cc1)N1CCCCC1`, for which, in assay [1], the inhibition was found to be 48.7%.

In the case of `CSc1ccc(/C=C/C=C/C(=O)N2CCCCC2)cc1`, in assay [1], the inhibition is 11.8%.

Turning to `COc1cc(/C=C/C=C/C(=O)N2CCCCC2)cc(OC)c1`, the inhibition in assay [1] came out at 64.9%.

Compound `COC1=C(OC)C(=O)C(CCCCCCCCCCO)=C(C)C1=O` [IDEBENONE] had a pIC50 in assay [5] of less than 5.00.

As for `O=C(/C=C/C=C/c1ccc(O)cc1)N1CCCCC1`, in assay [1], the inhibition came to 44.4%.
